Laboratory results: patent US11390616B2 (BRISTOL-MYERS SQUIBB COMPANY, priority 2015, dated 2022)

The compounds below were run against T1, human APJ receptor (Homo sapiens, UniProt P35414) (assay: Intracellular cAMP accumulation assay (APJ hcAMP, HTRF)). Details: HEK293 cells stably expressing human APJ receptor; inhibition of forskolin-mediated cAMP production; read-out: APJ cAMP Potency range.
T1 construct: expressed in transfected cells; host or cells: HEK293
T1 sequence (P35414 1-380): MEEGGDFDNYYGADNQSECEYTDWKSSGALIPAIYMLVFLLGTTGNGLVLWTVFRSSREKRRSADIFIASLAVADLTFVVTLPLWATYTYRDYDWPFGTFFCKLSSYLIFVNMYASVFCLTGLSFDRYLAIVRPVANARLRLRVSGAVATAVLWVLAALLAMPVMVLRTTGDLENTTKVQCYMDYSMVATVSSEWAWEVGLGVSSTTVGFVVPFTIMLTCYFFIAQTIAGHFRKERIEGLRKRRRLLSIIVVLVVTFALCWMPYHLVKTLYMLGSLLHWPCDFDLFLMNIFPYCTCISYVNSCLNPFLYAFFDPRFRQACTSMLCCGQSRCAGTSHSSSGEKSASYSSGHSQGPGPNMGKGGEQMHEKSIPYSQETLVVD
Format: cell-based
Protocol: Intracellular cAMP Accumulation Assay
HEK293 cells stably expressing human APJ receptor were used to assess the activity of compounds. Cultured cells were detached and resuspended in the cAMP Homogeneous Time-Resolved Fluorescence (HTRF) assay buffer (Cisbio cat; #62AM4PEJ). The assay was performed in 384-well assay plates (Perkin-Elmer; cat #6008289) according to assay protocol provided by the manufacturer. Serial dilutions of a compound together with assay buffer containing […] IBMX and 2 μM forskolin were added to each well containing 5,000 cells and incubated for 30 minutes at room temperature. Subsequently, cAMP D2 reagent was added in the lysis buffer followed by the EuK antibody (Cisbio; cat #62AM4PEJ) and incubated for 60 min. The fluorescence emission ratio was measured using fluorometer. The intracellular cAMP concentrations (compound-stimulated inhibition of forskolin-mediated cAMP production) were calculated by extrapolation from a standard curve using known cAMP concentrations. The EC50 values were obtained by fitting the data to a sigmoidal concentration-response curve with variable slope. The maximal achievable inhibition of forskolin-induced cAMP levels (Ymax) for each compound was expressed as relative percentage of inhibition attained using pyroglutamated apelin-13 ((Pyr1)apelin-13) peptide, which was set to 100%.
The examples disclosed below were tested in the APJ in vitro assays described above and were found having human APJ cyclic AMP (hcAMP) activity. The EC50 value of each compound is presented at the end of the example description.
The biological activity of the exemplified compounds of this invention determined by the assay described above is shown at the end of each example.

Row | SMILES | EC50 [nM]
1 | CCCCc1nc(O)c(Cc2ccc(OC)cc2)c(=O)n1-c1c(OC)cccc1OC [Example 2, 2-butyl-3-(2,6-dimethoxyphenyl)-6-hydroxy-5-[(4-methoxyphenyl)methyl]-3,4-dihydropyrimidin-4-one] | 10 to 100
2 | CCCCc1nc(O)c(Cc2ccc(OC)cc2)c(=O)n1-c1ccccc1OC [Example 3, 2-butyl-6-hydroxy-3-(2-methoxyphenyl)-5-[(4-methoxyphenyl)methyl]-3,4-dihydropyrimidin-4-one] | 100 to 300
3 | CCCCc1nc(O)c(Cc2ccc(-n3cccn3)cc2)c(=O)n1-c1c(OC)cccc1OC [Example 5, 2-butyl-3-(2,6-dimethoxyphenyl)-6-hydroxy-5-{[4-(1H-pyrazol-1-yl)phenyl]methyl}-3,4-dihydropyrimidin-4-one] | 0.01 to 10
4 | CCCCc1nc(O)c(Cc2ccc(-c3ncon3)cc2F)c(=O)n1-c1c(OC)cccc1OC [Example 6, 2-butyl-3-(2,6-dimethoxyphenyl)-5-{[2-fluoro-4-(1,2,4-oxadiazol-3-yl)phenyl]methyl}-6-hydroxy-3,4-dihydropyrimidin-4-one] | 0.01 to 10
5 | CCCCc1nc(O)c(Cc2ccc(S(C)(=O)=O)cc2)c(=O)n1-c1c(OC)cccc1OC [Example 7, 2-butyl-3-(2,6-dimethoxyphenyl)-6-hydroxy-5-[(4-methanesulfonylphenyl)methyl]-3,4-dihydropyrimidin-4-one] | 10 to 100
6 | CCCCc1nc(O)c(Cc2cc(C)on2)c(=O)n1-c1c(OC)cccc1OC [Example 8, 2-butyl-3-(2,6-dimethoxyphenyl)-6-hydroxy-5-[(5-methyl-1,2-oxazol-3-yl)methyl]-3,4-dihydropyrimidin-4-one] | 10 to 100
7 | CCCCc1nc(O)c(Cc2ccc(NC(C)=O)cc2)c(=O)n1-c1c(OC)cccc1OC [Example 9, N-(4-{[2-butyl-1-(2,6-dimethoxyphenyl)-4-hydroxy-6-oxo-1,6-dihydropyrimidin-5-yl]methyl}phenyl)acetamide] | 10 to 100
8 | CCCCc1nc(O)c(Cc2ccc(-c3nc(C)no3)cc2)c(=O)n1-c1c(OC)cccc1OC [Example 10, 2-butyl-3-(2,6-dimethoxyphenyl)-6-hydroxy-5-{[4-(3-methyl-1,2,4-oxadiazol-5-yl)phenyl]methyl}-3,4-dihydropyrimidin-4-one] | 0.01 to 10
9 | CCCCc1nc(O)c(Cc2coc(-c3ccc(Cl)cc3)n2)c(=O)n1-c1c(OC)cccc1OC [Example 11, 2-butyl-5-{[2-(4-chlorophenyl)-1,3-oxazol-4-yl]methyl}-3-(2,6-dimethoxyphenyl)-6-hydroxy-3,4-dihydropyrimidin-4-one] | 0.01 to 10
10 | CCCCc1nc(O)c(Cc2ccc(-c3csnn3)cc2)c(=O)n1-c1c(OC)cccc1OC [Example 12, 2-butyl-3-(2,6-dimethoxyphenyl)-6-hydroxy-5-{[4-(1,2,3-thiadiazol-4-yl)phenyl]methyl}-3,4-dihydropyrimidin-4-one] | 0.01 to 10
11 | CCCCc1nc(O)c(Cc2ccc(-c3ncon3)c(F)c2)c(=O)n1-c1c(OC)cccc1OC [Example 13, 2-butyl-3-(2,6-dimethoxyphenyl)-5-{[3-fluoro-4-(1,2,4-oxadiazol-3-yl)phenyl]methyl}-6-hydroxy-3,4-dihydropyrimidin-4-one] | 0.01 to 10
12 | CCCCc1nc(O)c(Cc2ccc(-c3ccc(Cl)cc3)nc2)c(=O)n1-c1c(OC)cccc1OC [Example 14, 2-butyl-5-{[6-(4-chlorophenyl)pyridin-3-yl]methyl}-3-(2,6-dimethoxyphenyl)-6-hydroxy-3,4-dihydropyrimidin-4-one] | 0.01 to 10
13 | CCCCc1nc(O)c(Cc2ccc(C(=O)NCC)cc2)c(=O)n1-c1c(OC)cccc1OC [Example 15, 4-{[2-butyl-1-(2,6-dimethoxyphenyl)-4-hydroxy-6-oxo-1,6-dihydropyrimidin-5-yl]methyl}-N-ethylbenzamide] | 10 to 100
14 | COc1cccc(OC)c1-n1c(CCC(C)C)nc(O)c(Cc2ccc(NC(C)=O)cc2)c1=O [Example 16, N-(4-{[1-(2,6-dimethoxyphenyl)-4-hydroxy-2-(3-methylbutyl)-6-oxo-1,6-dihydropyrimidin-5-yl]methyl}phenyl)acetamide] | 10 to 100
15 | COc1cccc(OC)c1-n1c(CCC(C)C)nc(O)c(Cc2ccc(-c3ncon3)cc2)c1=O [Example 17, 3-(2,6-dimethoxyphenyl)-6-hydroxy-2-(3-methylbutyl)-5-{[4-(1,2,4-oxadiazol-3-yl)phenyl]methyl}-3,4-dihydropyrimidin-4-one] | 10 to 100
16 | COc1cccc(OC)c1-n1c(CCC(C)C)nc(O)c(Cc2coc(-c3ccc(Cl)cc3)n2)c1=O [Example 18, 5-{[2-(4-chlorophenyl)-1,3-oxazol-4-yl]methyl}-3-(2,6-dimethoxyphenyl)-6-hydroxy-2-(3-methylbutyl)-3,4-dihydropyrimidin-4-one] | 10 to 100
17 | CCCCc1nc(O)c(Cc2ccccc2)c(=O)n1-c1c(OC)cccc1OC [Example 19, 5-benzyl-2-butyl-3-(2,6-dimethoxyphenyl)-6-hydroxy-3,4-dihydropyrimidin-4-one] | 10 to 100
18 | CCCCc1nc(O)c(Cc2nc(-c3ccc(C(F)(F)F)cc3)no2)c(=O)n1-c1c(OC)cccc1OC [Example 20, 2-butyl-3-(2,6-dimethoxyphenyl)-6-hydroxy-5-({3-[4-(trifluoromethyl)phenyl]-1,2,4-oxadiazol-5-yl}methyl)-3,4-dihydropyrimidin-4-one] | 0.01 to 10
19 | COc1cccc(OC)c1-n1c(CCC(C)C)nc(O)c(Cc2nnc(-c3ccc(C)cc3)o2)c1=O [Example 21, 3-(2,6-dimethoxyphenyl)-6-hydroxy-2-(3-methylbutyl)-5-{[5-(4-methylphenyl)-1,3,4-oxadiazol-2-yl]methyl}-3,4-dihydropyrimidin-4-one] | 10 to 100
20 | CCCCc1nc(O)c(Cc2csc(-c3ccc(Cl)cc3)n2)c(=O)n1-c1c(OC)cccc1OC [Example 22, 2-butyl-5-{[2-(4-chlorophenyl)-1,3-thiazol-4-yl]methyl}-3-(2,6-dimethoxyphenyl)-6-hydroxy-3,4-dihydropyrimidin-4-one] | 10 to 100
21 | CCCCc1nc(O)c(Cc2csc(-c3ccc(C)cc3)n2)c(=O)n1-c1c(OC)cccc1OC [Example 23, 2-butyl-3-(2,6-dimethoxyphenyl)-6-hydroxy-5-{[2-(4-methylphenyl)-1,3-thiazol-4-yl]methyl}-3,4-dihydropyrimidin-4-one] | 10 to 100
22 | CCCCc1nc(O)c(Cc2ccn(-c3ccc(Cl)cc3)n2)c(=O)n1-c1c(OC)cccc1OC [Example 24, 2-butyl-5-{[1-(4-chlorophenyl)-1H-pyrazol-3-yl]methyl}-3-(2,6-dimethoxyphenyl)-6-hydroxy-3,4-dihydropyrimidin-4-one] | 0.01 to 10
23 | CCCCc1nc(O)c(Cc2cnn(-c3ccc(C)cc3)c2)c(=O)n1-c1c(OC)cccc1OC [Example 25, 2-butyl-3-(2,6-dimethoxyphenyl)-6-hydroxy-5-{[1-(4-methylphenyl)-1H-pyrazol-4-yl]methyl}-3,4-dihydropyrimidin-4-one] | 0.01 to 10
24 | CCCCc1nc(O)c(Cc2cnc(-c3ccc(Cl)cc3)s2)c(=O)n1-c1c(OC)cccc1OC [Example 26, 2-butyl-5-{[2-(4-chlorophenyl)-1,3-thiazol-5-yl]methyl}-3-(2,6-dimethoxyphenyl)-6-hydroxy-3,4-dihydropyrimidin-4-one] | 0.01 to 10
25 | CCCCc1nc(O)c(Cc2ccc(Cn3cccn3)cc2)c(=O)n1-c1c(OC)cccc1OC [Example 27, 2-butyl-3-(2,6-dimethoxyphenyl)-6-hydroxy-5-{[4-(1H-pyrazol-1-ylmethyl)phenyl]methyl}-3,4-dihydropyrimidin-4-one] | 0.01 to 10
26 | CCCCc1nc(O)c(Cc2ccc(-n3ccccc3=O)cc2)c(=O)n1-c1c(OC)cccc1OC [Example 28, 2-butyl-3-(2,6-dimethoxyphenyl)-6-hydroxy-5-{[4-(2-oxo-1,2-dihydropyridin-1-yl)phenyl]methyl}-3,4-dihydropyrimidin-4-one] | 0.01 to 10

Same assay, conditions: HEK293 cells stably expressing human APJ receptor; inhibition of forskolin-mediated cAMP production; read-out: Human APJ cAMP EC50 potency range

Row | SMILES | EC50 [nM]
27 | CCCCc1nc(=O)c(Cc2ccc(Br)cc2)c(O)n1[C@@H](CC)c1cccc(C#N)c1 [Compound 95i, (S)-3-(1-(5-(4-bromobenzyl)-2-butyl-6-hydroxy-4-oxopyrimidin-1(4H)-yl)propyl)benzonitrile] | 10 to 100
28 | CCOCc1nc(O)c(Cc2ccc(-n3ccccc3=O)cc2)c(=O)n1-c1c(OC)cccc1OC [Example 1] | 100 to 300
